Where a SMILES comes first, the peptide text is derived from it. Where no end group is shown, it is not given here. The star is where a group is joined. X1 = CC(=O)O[C@H]1C(=O)[C@@]2(C)[C@H]([C@H](OC(=O)c3ccccc3)[C@]3(O)C[C@H](OC(=O)[C@H](OC(=O)CCC(=O)NCCN4C(=O)CC(*)C4=O)[C@@H](NC(=O)c4ccccc4)c4ccccc4)C(C)=C1C3(C)C)[C@]1(OC(C)=O)CO[C@@H]1C[C@@H]2O
B1: TAR peptide (peptide)
peptide: CRKKRRQRRRATWLPPR
notes: also called fused peptide TAR; bifunctional fusion peptide of TAT and A7R; source: synthetic peptide (China Peptide Co., Ltd.)

How the values were obtained:
4T1-mCherry-Luc tumor = assay: In vivo antitumor efficacy, subcutaneous TNBC model; design: species or system mice; settings: tail vein every two days, 16 d, n = 7
Experimental: Healthy female BALB/c mice (18–20 g) were purchased from Shandong University Laboratory Animal Center. Mice were housed in a pathogen-free environment under conditions of 25 ± 2 °C, 50 ± 5% relative humidity, and 12-h light/dark cycles. They were provided with food and water ad libitum. All animal experiment protocols were approved by the Ethics Committee of School of Pharmaceutical Sciences, Shandong University (22017) and implemented according to the regulations of the Shandong Council on Animal Care. To establish the mice TNBC model, 1.0 × 10^6 4T1-mCherry-Luc cells were subcutaneously injected into the left forelimb armpit of mice. […] solution was injected into mice through the abdominal and reacted with 4T1-mCherry-Luc cells to produce bioluminescence. Then, the fluorescence signals were observed and counted by an IVIS Spectrum imaging system (IVIS Kinetic).
Four days after tumor cell implantation, mice were randomly divided into four groups (n = 7). Seven mice in each group, a total of twenty-eight mice were used. Then, saline, TAR peptide (10.6 mg/kg), PTX (4 mg/kg), and PTX-SM-TAR NPs (15.6 mg/kg) were injected through the tail vein every two days. Tumor size and body weight were measured every 4 d. After 16 d of treatment, mice were sacrificed and tumors were removed, weighed, and further analyzed.

[1] = test system: 4T1-mCherry-Luc 3D tumor spheroids; assay: Penetration in 3D tumor spheroids; assay type: cell-based; settings: 4 h incubation, LSCM, scanned at 10 μm interval
Experimental: After adding 150–200 μL of 2% agarose solution to each well, the 48-well plate was placed on the ultra-clean bench under UV irradiation for 30 min before solidification. The 4T1-mCherry-Luc cells were planted into the plate at the density of 4 × 10^4 cells per well and cultured in the incubator for one week. After the cells aggregated into spherical shapes, tumor spheroids were transferred to confocal dishes and incubated with PTX-SM-TAR/C6 NPs and coumarin-6 solution for 2 and 4 h. The tumor spheroids were washed with PBS, fixed with 4% paraformaldehyde for 30 min, and observed with LSCM.

4T1-mCherry-Luc cells = assay: Wound healing migration assay; assay type: cell-based; settings: 24 h, mean ± SEM, n = 3
Experimental: The effect of PTX-SM-TAR NPs and PTX on 4T1-mCherry-Luc cell migration was evaluated with wound-healing assay. 4T1-mCherry-Luc cells were seeded in 6-well plates at a density of 3 × 10^5 cells per well. After overnight culture, the cells were wounded linearly by a 200 µL pipette tip. […] Images of 0 and 24 h were captured by an inverted microscope.

EA.hy926 cells = assay: Cytotoxicity against normal cells; assay type: cell-based; settings: Figure S5, n = 3
Neuropilin 1 (NRP-1) = Neuropilin 1 (NRP-1) (UniProt O14786 22-923, The paper says only 'purified NRP-1 protein', immobilized on a CM5 chip. Species, construct and supplier are not printed. Human ectodomain (signal peptide removed, extracellular 22-856) is taken by co); assay: SPR; Biacore T200; purified NRP-1 immobilised on a CM5 chip; gradient-diluted TAR peptide flowed over; HBS-EP running buffer; settings: both partners purified
Neuropilin 1 (NRP-1), sequence (O14786 22-923): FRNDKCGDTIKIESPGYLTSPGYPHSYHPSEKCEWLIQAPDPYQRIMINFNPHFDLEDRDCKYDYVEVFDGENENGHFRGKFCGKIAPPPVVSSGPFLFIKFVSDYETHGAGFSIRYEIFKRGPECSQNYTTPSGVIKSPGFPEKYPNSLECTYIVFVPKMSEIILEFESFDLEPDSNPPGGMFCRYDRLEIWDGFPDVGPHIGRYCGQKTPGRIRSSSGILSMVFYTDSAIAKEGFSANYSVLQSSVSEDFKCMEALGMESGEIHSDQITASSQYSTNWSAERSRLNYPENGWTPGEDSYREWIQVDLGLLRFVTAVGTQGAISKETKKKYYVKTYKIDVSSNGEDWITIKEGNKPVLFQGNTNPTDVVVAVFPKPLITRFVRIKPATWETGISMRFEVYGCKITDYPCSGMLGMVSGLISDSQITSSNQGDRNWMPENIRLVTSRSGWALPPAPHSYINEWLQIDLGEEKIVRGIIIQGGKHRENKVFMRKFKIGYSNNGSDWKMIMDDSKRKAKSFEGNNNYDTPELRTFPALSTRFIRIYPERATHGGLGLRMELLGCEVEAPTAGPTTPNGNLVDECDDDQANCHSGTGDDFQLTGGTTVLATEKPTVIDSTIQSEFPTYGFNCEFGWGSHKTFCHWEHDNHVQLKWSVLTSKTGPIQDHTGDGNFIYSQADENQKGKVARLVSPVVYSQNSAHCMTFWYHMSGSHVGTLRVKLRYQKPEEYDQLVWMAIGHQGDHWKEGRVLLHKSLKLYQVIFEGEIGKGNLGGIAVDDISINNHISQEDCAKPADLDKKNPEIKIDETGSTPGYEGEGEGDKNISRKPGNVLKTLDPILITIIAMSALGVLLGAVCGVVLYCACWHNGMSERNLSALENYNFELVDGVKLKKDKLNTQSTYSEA

Row | Molecule | body weight of mice during the experiment (4T1-mCherry-Luc tumor) | toxicity to normal cells (EA.hy926 cells) | other results
1 | CRKKRRQRRRATWLPPR [TAR] | remained stable | – | –
2 | CCN(CC)c1ccc2cc(-c3nc4ccccc4s3)c(=O)oc2c1 [coumarin-6] | – | – | fluorescence distribution in tumor spheroids along Z-axis [1]: gradually disappeared after the Z-axis exceeded 60 μm
3 | CC(=O)O[C@H]1C(=O)[C@@]2(C)[C@H]([C@H](OC(=O)c3ccccc3)[C@]3(O)C[C@H](OC(=O)[C@H](O)[C@@H](NC(=O)c4ccccc4)c4ccccc4)C(C)=C1C3(C)C)[C@]1(OC(C)=O)CO[C@@H]1C[C@@H]2O [PTX, paclitaxel] | remained stable | slight toxicity to normal cells in the low-concentration | migration rate (4T1-mCherry-Luc cells; 10 nM): 32.53 ± 1.43%; migration rate (4T1-mCherry-Luc cells; 100 nM): 18.96 ± 2.76%; tumor inhibition rate (4T1-mCherry-Luc tumor; TAR 10.6 mg/kg, PTX 4 mg/kg, PTX-SM-TAR NPs 15.6 mg/kg, tumor weight): 28.47%
4 | CC(=O)O[C@H]1C(=O)[C@@]2(C)[C@H]([C@H](OC(=O)c3ccccc3)[C@]3(O)C[C@H](OC(=O)[C@H](OC(=O)CCC(=O)NCCN4C(=O)CC(SC[C@H](N)C(=O)N[C@@H](CCCNC(=N)N)C(=O)N[C@@H](CCCCN)C(=O)N[C@@H](CCCCN)C(=O)N[C@@H](CCCNC(=N)N)C(=O)N[C@@H](CCCNC(=N)N)C(=O)N[C@@H](CCC(N)=O)C(=O)N[C@@H](CCCNC(=N)N)C(=O)N[C@@H](CCCNC(=N)N)C(=O)N[C@@H](CCCNC(=N)N)C(=O)N[C@@H](C)C(=O)N[C@H](C(=O)N[C@@H](Cc5c[nH]c6ccccc56)C(=O)N[C@@H](CC(C)C)C(=O)N5CCC[C@H]5C(=O)N5CCC[C@H]5C(=O)N[C@@H](CCCNC(=N)N)C(=O)O)[C@@H](C)O)C4=O)[C@@H](NC(=O)c4ccccc4)c4ccccc4)C(C)=C1C3(C)C)[C@]1(OC(C)=O)CO[C@@H]1C[C@@H]2O (stereo partly shown) [PTX-SM-TAR NPs] (H-C(X1)RKKRRQRRRATWLPPR-OH) | remained stable | same trend as the PTX | –
5 | B1 | – | – | Kd (Neuropilin 1 (NRP-1)): 34 nM
